Patent US20190201430A1, “TREATING OCULAR NEOVASCULARIZATION” (Massachusetts Eye and Ear Infirmary, priority 2014, published 2019)

Experiments:
Format in all cases: cell-based, human
[1] = tested on: HUVECs; experiment: Albumin endocytosis assay under VEGF; settings: AICAR 2 mM 2 h, VEGF 12.5 ng/mL 10 min; FIG. 10B
Method: After overnight serum starvation, HUVECs were pretreated with AICAR (2 mM) for 2 h and then stimulated with VEGF (12.5 ng/mL) for 10 min. We added BSA conjugated with Alexa 555 (50 μg/mL, Life Technologies, Gaithersburg, Md.) in the medium during the experiment. Cells on coverslips were washed three times with cold TBS and fixed in 100% methanol at −20° C. for 15 min. Cells were then permeabilized in 0.3% Triton X-100, 0.15% BSA in TBS with 0.05% Tween 20 (TBST) for 15 min at room temperature, and blocked with 0.5% skim milk in TBST for 60 min at room temperature. Cells were incubated in p-caveolin-1 antibody diluted 1:200 and VE-cadherin antibody diluted 1:400 overnight at 4° C., and then incubated for 2 h in secondary antibody diluted 1:300. Cells were then rinsed three times in TBST before mounting in Toto3 (Life Technologies). Images were acquired with a Leica TCS SP2 spectral confocal laser scanning microscope (Leica Microsystems, Wetzlar, Germany).

[2] = tested on: AMPK; experiment: Western blotting of AMPK phosphorylation in HUVECs (Example 2)
Method: Human umbilical vein endothelial cells (HUVECs) were cultured in endothelial growth medium (EGM, Lonza, Walkersville, Md.). Normal human dermal fibroblasts (NHDFs) were cultured in fibroblast basal medium (ATCC, Rockville, Md.). Cells were grown at 37° C. in a humidified atmosphere of 95% air, 5% CO2. Experiments were performed on cells below passage 3 to 6 grown to 80%-90% confluence.
Protein extraction and Western blotting were carried out as described previously (Morizane et al. JBC (26)). We conducted a densitometric analysis of bands using ImageJ software. Lane-loading differences were normalized by β-actin.

[3] = tested on: HUVECs cocultured with NHDFs; experiment: In vitro angiogenesis (tube formation) assay; settings: AICAR 0.25, 0.5, 1.0, 2.0 mM; VEGF 12.5 ng/mL; FIG. 8A,B
Method: To evaluate the effects of AICAR on angiogenesis, HUVECs were cocultured with NHDFs in a 24-well plate with or without VEGF and AICAR. NHDF cells were seeded at 1.0×10^5 cells/well and then cultured for 2 wks to form a fibroblast cell sheet. […] Suramin (50 μM) was used as the inhibitor of VEGF. At 3, 7 and 10 days after treatment, cells were fixed at −20° C. in ethanol and acetone (1:1). Subsequently, cells were blocked with 1% bovine serum albumin (BSA) in phosphate-buffered saline for 30 min at room temperature, and then incubated with primary rabbit anti-human CD31 antibody overnight at 4° C. After the cells were washed with Tris-buffered saline (TBS), Alexa Flour 488 goat anti-rabbit IgG was applied for 2 h at room temperature. The tube length was quantified using a Kurabo Angiogenesis Image Analyzer (imaging software; Kurabo, Osaka, Japan).

[4] = tested on: HUVEC; experiment: Albumin endocytosis assay under H2O2 (Alexa555-BSA, confocal); settings: AICAR 2 mM 2 h, then H2O2 2 mM 30 min, FIG. 1D
Method: After serum starvation for overnight, HUVECs were pretreated with AICAR (2 mM) for 2 h, and then stimulated with H2O2 (2 mM) for 30 min. We added BSA conjugated with Alexa 555 (50 μg/ml, Life Technologies, Gaithersburg, Md.) in the medium during the experiment. Cells on coverslips were washed three times with cold TBS and fixed in 100% methanol at −20° C. for 15 min. Cells were then permeabilized in 0.3% Triton X-100, 0.15% BSA in TBS with 0.05% Tween 20 (TBST) for 15 min at room temperature and blocked with 0.5% skim milk in TBST for 60 min at room temperature. Cells were incubated in p-caveolin-1 antibody diluted 1:200 and VE-cadherin antibody diluted 1:400 for overnight at 4° C., and then incubated for 2 h in secondary antibody diluted 1:300. Cells were then rinsed three times in TBST before mounting in Toto3 (Life Technologies, Gaithersburg, Md.). Images were acquired with confocal microscope, Leica TCS SP2 spectral confocal laser scanning microscope (Leica Microsystems, Wetzlar, Germany).

## NC(=O)c1ncn([C@@H]2O[C@H](CO)[C@@H](O)[C@H]2O)c1N [AICAR, 5-Aminoimidazole-4-carboxamide riboside]
[1]
  VEGF-induced albumin endocytosis: significantly suppressed
[2]; AICAR 2 mM, presence or absence of VEGF, FIG. 9A,B
  AMPK phosphorylation on AICAR treatment (time course): resulted in AMPK and PTEN phosphorylation
[2]; each concentration of AICAR for 2 h, FIG. 12A
  AMPK phosphorylation on AICAR administration: dose dependent AMPK phosphorylation
[3]
  VEGF-induced vascular tube formation (tube length): dose-dependent inhibition
[4]
  H2O2 induced albumin endocytosis: suppressed
  caveolin-1 phosphorylation (immunofluorescence) in albumin endocytosis assay: suppressed
